Assay results published in patent US20040072171A1, “Method for identifying compounds for modulating the activity of a tumor suppressor protein” (priority 2000, published 2004).

Columns and labels:
[1] = test system: Erk; assay: PDGF-dependent phosphorylation of Erk; assay type: cell-based, rat; conditions: clone 54, serum starvation, doxycyclin 8 hours, PDGF 5 ng/ml 5 minutes
Experimental: The cells were used to seed 6-well plates at Low density and 24-well plates at high density, with or without 0.8% methylcellulose. The cells remained free from serum for 24 hours and were treated with doxycyclin or left untreated for the last 8 hours. Then, the cells were stimulated for 5 minutes with 5 ng/ml PDGF and subsequently harvested in 2×Laemmli sample buffer, and the cell extracts were separated on a 10% SDS polyacrylamide gel. After the proteins had been transferred to the membrane, immunoblots were prepared with a phospho-Erk-specific antibody, and the bound antibody was detected. As a control for uniform loading of the separating gel with Erk, the membrane was stripped (freed from antibody) and anti-Erk-blotted.
C. […] Cells of clone 54 were plated at high or low cell density, left to grow for 24 hours with serum starvation and treated during the last 8 hours with doxycyclin (+) or left untreated (−). Where stated, the cells were treated for 2 hours with hyaluronidase (HAase, 5 U/μl), for 10 minutes with solCD44wt and/or for 5 minutes with PDGF (5ng/ml). The proteins of the lysates were separated by means of SDS-PAGE, and immune blots were carried out with phospho-Erk and Erk-specific antibodies. Clone 63 gave the same results as all the experiments in FIG. 6.
C. […] Cells were grown at low cell density and subsequently treated with doxycyclin with serum starvation cells as shown in FIG. 6C and assayed for the PDGF-dependent phosphorylation of Erk. Where stated, HA (100 μg/ml) was present for 10 minutes and PDGF (5 ng/ml) was present for 5 minutes. Experiments A to C were also carried out with clone 63, and similar results were obtained.

[2] = test system: merlin; assay: Immune blot for dephosphorylation of merlin in clone 54 lysates; assay type: cell-based, rat; conditions: exponentially growing clone 54 cells, 8 hours doxycyclin
Experimental: For the immunoprecipitation of merlin, the cells were grown to confluence in 10 cm dishes, washed once with ice-cold PBS and then placed on ice and lysed with 1 ml lysis buffer per plate (50 mM Tris pH 7.4, 150 mM NaCl, 3 mM MgCl2, 0.5% NP-40, 1 mM PMSF, 10 μg/aprotinin ml, 10 μg/ml leupeptin). The DNA was sheared using a gauge 26 needle. The lysate was clarified by centrifugation, and the supernatant was incubated with 5 μg/ml merlin antibody at 4° C. overnight with gentle rotation. The reaction was subsequently treated with 30 μl of protein A agarose (dianova) and left to rotate for a further 3 hours at 4° C. The immune complexes were washed 4 times with cold lysis buffer and separated in 50 μl 2×Laemmli sample buffer. The protein was dissolved in a 10% SDS-PAGE, and immunoblots were generated with a merlin-specific antibody. For the treatment with calf intestine phosphatase (CIP), the lysate was incubated for 1 hour at 30° C. with 1 unit CIP prior to the immunoprecipitation. The coimmunoprecipitation of merlin and CD44 was carried out analogously, except that a different lysis buffer was used (20 mM Tris pH 7.4, 50 mM NaCl, 3 mM MgCl2, 0.5% NP40). The lysates were preincubated for 2 hours with protein A/G-agarose (Dianova) to remove unspecifically binding components, whereupon 5 μg/ml CD44 antibody 5G8 was added and the reaction was allowed to rotate overnight. […]

[3] = test system: RT4-D6P2T cells; assay: Growth in culture vessels of merlin-inducible schwannoma clone 54; assay type: cell-based, rat; conditions: for merlin-dependent growth inhibition in confluent cell cultures: merlin expression induced by doxycyclin
Experimental: Growth in culture vessels: To determine the growth curves, each well of a 24-well plate was seeded with 5×10^3 cells (in FIG. 7: 2.5×10^3), and determinations in triplicate were carried out every 24 hours (days). Definition of the growth conditions:
1. Low cell density (=logarithmic or exponential growth) means a cell density of 500 cells per cm^2 24 hours after seeding.
2. high cell density (=confluent growth condition) is defined as a cell density of 5×10^3 cells per cm^2 24 hours after seeding.
A. The soluble extracellular domain of CD44 sequestrates different ligands of exponentially growing and confluent cells. In each case 3 wells of a 24-well plate were seeded in triplicate with cells of clone 54, and the cells were treated with doxycyclin in order to induce the expression of merlin. On day 1 (logarithmically growing cells) and on day 3 (confluent cells), 10 ng/ml of soluble extracellular CD44 domain, either of the wild type (solCD44 or solCD44wt) or of the glycosaminoglycan-binding mutant (solCD44mut), were added. As the control, cells were treated in the same manner without doxycylin (since the addition of solCD44 was ineffective, only one group of data is shown).
B. Hyaluronate delays growth. In each case 3 wells of a 24-well plate were seeded in triplicate with cells of clone 54. Doxycyclin and hyaluronate (100 μg/ml) were added as stated.

[4] = test system: NIH3T3 cells; assay: Growth rate of NIH3T3 cells; assay type: cell-based, murine; conditions: 100 μg/ml, cell counts on the following 3 days
Experimental: A. Growth rate of NIH3T3 cells after addition of hyaluronan. 24-well plates were seeded in triplicate with NIH3T3 cells at a density of 0.5×10^4 cells. Where stated, the culture medium was treated the next day with 100 μg/ml hyaluranon (Healon). The cell counts were determined on each of the following 3 days.

[5] = test system: p27^Kip1; assay: Induction of p27Kip1 in NIH3T3 cells (immune blot); assay type: cell-based, murine; conditions: for level of cell division cycle inhibitor p27^Kip1: 30 minutes, hyaluronan 100 μg/ml or solCD44s 10 ng/ml
Experimental: B. Induction of p27^Kip1 by treatment with hyaluronan. […] The next day, they were treated either with 100 μg/ml of hyaluronan or with 10 ng/ml solCD44s, and the plates were incubated for 30 minutes. The cells were harvested in 2×Laemmli sample buffer, and an immune blot with a polyclonal, p27^Kip1-specific antibody from rabbit was carried out (C-19, Santa Cruz). A polyclonal actin-antibody from goat (I-19, Santa Cruz) was used as loading control.

[6] = test system: MEK; conditions: merlin-inducible schwannoma cells, inhibitor for 2 or 12 hours
Experimental: Merlin-inducible schwannoma cells were plated onto 6-well plates at a density of 1.5×10^4 cells per well. 1 μg/ml doxycyclin was added where stated. After 16 hours, an MEK activation inhibitor (UO126; Promega) was added for 2 or 12 hours. 0 means no addition of inhibitor. The cells were harvested and solubilized in 2×Laemmli buffer, and the proteins were separated on a 10% SDS polyacrylamide gel. The proteins were transferred to a membrane, and an immune blot was carried out either with the polyclonal p27^Kip1 antibody C-19 from rabbit or with the Rb-specific antibody C-15 (Santa Cruz). The actin-specific antibody I-19 was used as loading control.

| Molecule | PDGF-dependent phosphorylation of Erk / activation of merlin [1] | phosphorylation state of merlin [2] | growth of clone 54 cells ([3]; hyaluronate 100 μg/ml, with doxycyclin) | growth rate of NIH3T3 cells [4] | level of cell division cycle inhibitor p27^Kip1 [5] | induction of p21 and p27 ([5]; hyaluronate-induced activation of merlin) | merlin-dependent growth inhibition in confluent cell cultures [3] | effect on growth of cells without doxycyclin ([3]; control cells without doxycyclin, 10 ng/ml) | growth of cultures in the logarithmic growth phase ([3]; logarithmically growing cells, merlin induced by doxycyclin, soluble CD44 10 ng/ml) | hypophosphorylated Rb [6] | level of p27^Kip1 [6] |
| --- | --- | --- | --- | --- | --- | --- | --- | --- | --- | --- | --- |
| hyaluronate | blocks the PDGF-dependent phosphorylation of Erk | Induced dephosphorylation of merlin | delays growth | reduced their growth rate | increased | induction of p21 and p27 | – | – | – | – | – |
| solCD44wt: soluble extracellular CD44 domain of the wild type | nullifies blocking of the activation of merlin | Induced dephosphorylation of merlin | – | – | increased | – | growth inhibition is nullified | ineffective | growth inhibition is observed | – | – |
| N#CC(=C(/N)Sc1ccccc1N)/C(C#N)=C(/N)Sc1ccccc1N [UO126] | – | – | – | – | – | – | – | – | – | increase | higher level |
| hyaluronidase | destroys the ligand responsible for the activation of merlin | – | – | – | – | – | prevents the inhibition of growth | – | – | – | – |
